Assay [1] relates to melanosome transfer from melanocytes to keratinocytes. The conditions noted are these: in vitro; cited from earlier work.
The test system of another assay is melanocyte. The conditions noted are these: in vitro; cited from earlier work.
Assay [2] relates to ultraviolet-induced skin pigmentation. The conditions noted are these: Shimizu K. et al., Planta Med 2002; cited from earlier work.
For assay [3], the system named is tert-Keratinocyte (tKC) cell line. The experiment in a line: C-map query with the composite skin tone benchmark signature. The conditions noted are these: composite signature of Niacinamide, Hexamidine, Sepiwhite and NAG. Type of assay: cell-based, human. Here is the method:
Individual experiments (referred to as batches) generally comprise 30 to 96 samples analyzed using Affymetrix GeneChip® technology platforms, containing 6 replicates of the vehicle control (e.g., DSMO), 2 replicate samples of a positive control that gives a strong reproducible effect in the cell type used, and samples of the test material/perturbagen. Replication of the test material is done in separate batches due to batch effects. In vitro testing was performed in 6-well plates to provide sufficient RNA for GeneChip® analysis (2-4 μg total RNA yield/well).
Human telomerized keratinocytes (tKC) were obtained from the University of Texas, Southwestern Medical Center, Dallas, Tex. tKC cells were grown in EpiLife® media with 1× Human Keratinocyte Growth Supplement (Invitrogen, Carlsbad, Calif.) on collagen I coated cell culture flasks and plates (Becton Dickinson, Franklin Lakes, N.J.). Keratinocytes were seeded into 6-well plates at 20,000 cells/cm^2 24 hours before chemical exposure. Human skin fibroblasts (BJ cell line from ATCC, Manassas, Va.) were grown in Eagle's Minimal Essential Medium (ATCC) supplemented with 10% fetal bovine serum (HyClone, Logan, Utah) in normal cell culture flasks and plates (Corning, Lowell, Mass.). BJ fibroblasts were seeded into 6-well plates at 12,000 cells/cm^2 24 hours before chemical exposure. […]

The test system of assay [4] is Chinese females, 25-55 years old with hyperpigmented spots. The experiment in a line: 9-week split-face, vehicle-controlled clinical skin tone benefit study. The class given is in vivo, human. The conditions noted are these: 0.05% in SC-99 vehicle, vs vehicle. The text has this:
This Example provides evidence of the advantages of using composite signatures and illustrates clinical affirmation of the C-map model for predicting efficacy of skin-lightening agents. This Example supports embodiments related to composite signatures (as described at the end of Example 3). An illustrative “Skin Tone” Signature developed from a genomics study using a composite skin-lightening benchmark agent signature is derived from Niacinamide, Hexamidine, Sepiwhite, and NAG. The signature is used to query C-map and generate a list of potential skin-lightening agents. A top hit, Chlorhexidine Diactate (CD) is entered into clinical testing for confirmation of efficacy. The control for clinical efficacy is a 5% Niacinamide +1% Sepiwhite formulation in the control vehicle.
Primary endpoints are changes in color spot area fraction (image analysis) and melanin spot area fraction (NC2) from baseline. Secondary endpoints are changes from baseline in L*a*b (color image analysis), mean melanin gray scale (NC2), and melanin evenness (NC2). Texture area fraction and pore area fraction are also evaluated to explore impact on other aspects relating to overall skin tone. […] Statistically significant superiority to the high efficacy benchmark skin active agent to vehicle performance is the clinical success criteria.
Study Design: The experimental protocol included a 9-week (1-week preconditioning & 8-week treatment), randomized, double-blind, round robin, vehicle-controlled, split-face tone benefit study. The subject population included 330 Chinese females, 25-55 years old with hyperpigmented spots. 318 subjects completed the entire study. […] Olay Complete SPF 15 UV Moisturizing Lotion is concomitantly used during pre-conditioning and treatment. 0.5 g each test product per half-face (forehead to jaw line; ˜4 mg/cm^2) is dosed 2× a day (morning/evening). Color SAF and treatment area, Melanin SAF, gray scale, evenness by NC2, and additional measurement of Fine Lines and Wrinkle and Texture are by REAL 3.01A. Data collection points include baseline, and ends of weeks 4, 6 and 8. The tested hypothesis is that there is no difference in clinical endpoint versus the benchmark composition treatment. Study site is Kuntai Clinical Center, Beijing, China and study time frame is February 2010 (pre-conditioning) to April 2010.

The next assay addresses T1, tyrosinase (Homo sapiens, UniProt P14679).
T1 sequence (P14679 19-529): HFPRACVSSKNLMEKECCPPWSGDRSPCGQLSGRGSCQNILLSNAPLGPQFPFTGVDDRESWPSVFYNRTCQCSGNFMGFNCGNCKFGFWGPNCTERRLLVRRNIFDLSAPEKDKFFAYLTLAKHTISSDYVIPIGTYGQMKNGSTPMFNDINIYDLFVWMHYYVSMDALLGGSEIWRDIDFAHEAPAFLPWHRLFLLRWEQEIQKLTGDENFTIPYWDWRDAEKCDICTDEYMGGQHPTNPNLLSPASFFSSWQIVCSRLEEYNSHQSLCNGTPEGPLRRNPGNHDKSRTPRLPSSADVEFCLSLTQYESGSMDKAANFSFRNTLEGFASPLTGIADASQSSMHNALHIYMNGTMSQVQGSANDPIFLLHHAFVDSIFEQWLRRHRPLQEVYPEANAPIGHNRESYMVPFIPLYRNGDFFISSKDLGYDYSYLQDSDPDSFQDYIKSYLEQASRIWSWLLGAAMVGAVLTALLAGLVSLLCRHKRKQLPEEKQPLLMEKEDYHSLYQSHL
The conditions noted are these: in vitro; cited from earlier work.

The text below walks through data of patent US10418127B2, “Method of formulating a skin-lightening composition” (The Procter & Gamble Company, priority 2012, dated 2019).

For the molecule `NC(=O)c1cccnc1` [niacinamide], the melanosome transfer result in assay [1] is “inhibits melanosome transfer from melanocytes to keratinocytes”.
Consider `C=CCCCCCCCCC(=O)N[C@@H](Cc1ccccc1)C(=O)O` [N-undecylenoyl-L-phenylalanine], for which the “binding of alpha-MSH to the melanocyte” value in the assay with melanocyte is given as “inhibit biding of alpha-MSH to the melanocyte”.
On to `COc1cc2oc(-c3ccc(O)cc3O)c(CC=C(C)C)c(=O)c2c(O)c1/C=C/C(C)C` [artocarpin], for which, in assay [2], the skin-lightening efficacy result is “some efficacy for skin-lightening”.
Take `CC(=O)O.CC(=O)O.NC(=N\CCCCCC/N=C(N)/N=C(\N)Nc1ccc(Cl)cc1)/N=C(\N)Nc1ccc(Cl)cc1` [CD, Chlorhexidine Diacetate]: the “connectivity to the tone composite benchmark signature query” value in assay [3] is “top connectivity hit”. Moreover, the “spot area fraction color test” value in assay [4] (2x a day, week 8) was “significantly fewer spots when compared to vehicle”. Moreover, in assay [4] (week 8), the Basal skin tone result is “demonstrated superiority”, the Pore area fraction entry was “superior efficacy” and the Texture area fraction result is reported as “superior efficacy”. Also, in assay [4] (weeks 6 and 8), the “NC2 Melanin evenness test” value is reported as “superiority to the vehicle” and the “spot area fraction NC2 test” value was “significantly reduced fraction when compared to the vehicle”.
Consider `N[C@H]1C(O)O[C@H](CO)[C@@H](O)[C@@H]1O` (some centres unmarked) [glucosamine], for which, at tyrosinase, the production of melanin result is recorded as “reduces production of melanin by inhibiting activation of tyrosinase”.
